According to patent US8742068B2, “Treatment and prevention of inflammatory diseases and autoimmune diseases” (Universiteit Utrecht Holding B.V., priority 2007, dated 2014):

What was measured:
DSS colitis = assay: DSS colitis, peroral treatment (Prague study, 2nd part, Example 4); format: in vivo, BALB/c mice
Description: Fifteen conventional female Balb/c female mice (7 to 9 weeks old) were randomly separated in […] (five mice each). To evaluate the efficacy of per oral treatment, the antigens (full length Mycobacterial HSP70 protein) were administered together with 1 mg of Soybean trypsin inhibitor (SBTI, Sigma) dissolved in 50 μl of 0.15 M sodium bicarbonate, by gavage 4 times in one week interval. After one week the mice received 3% dextran sodium sulphate (DSS) in their drinking water continuously for up to 8 days. Colitis was evaluated on day 36 by a clinical activity score, by colon length and histological score.
• treated: 100 μl of sterile PBS/SBTI intragastrically (Control) Group B2 (HSP60+DSS): • treated: HSP60 30 μg/mouse in 100 μl of sterile PBS/SBTI (1:1) intragastrically Group C2 (HSP70+DSS): • treated: HSP70 30 μg/mouse in 100 μl of sterile PBS/SBTI (1:1) intragastrically Results

TNBS-induced colitis = assay: TNBS colitis (Example 6); format: in vivo, BALB/c mice
Description: Female BALB/c mice (Charles River-Germany), 10-12 weeks of age at start of the experiment, were either treated intragastrically or intranasally with full HSP70 [SEQ ID NO: 55] or HSP70 peptides (Mycobacterial HSP70 derived peptide “C1” shown in SEQ ID NO: 3 and mouse homologue peptide “mC1a” of SEQ ID NO: 4) prior to disease induction. Mice received 4×30 μg HSP70 intragastrically, in a period of 4 weeks. Stomach contents were neutralized by administering soybean trypsin inhibitor (SBTI) 10 minutes prior to oral HSP70 administration.
Intranasal treatment was performed with 4×30 μg HSP70 or 4×(67 μg peptide C1 (Mycobacterial tub. HSP70 peptide 141-155, VLRIVNEPTAAALAY) mixed with 33 μg peptide mC1a (=mouse Grp75 (hspa9) peptide 216-230, […])), in a period of 1 week.
Next, mice were sensitized by painting the shaved abdomen with 1 mg of TNBS in 100 μl 50% ethanol on two consecutive days, followed by a rectal challenge with 1 mg TNBS in 100 μl 40% ethanol, after 6 days. Mice were dissected 3 days later, and colonic inflammation was determined based on colon length, weight and morphology. Furthermore, cytokine production within colon and draining caudal lymph nodes (CLN) were determined.
• A. Oral PBS, sensitization TNBS, challenge TNBS (control group) • B. Oral (full length) HSP70, sensitization TNBS, challenge TNBS (oral group) • C. […]

adjuvant arthritis = conditions: in vivo; cited from earlier work
[1] = 30 μg/mouse intragastrically with SBTI, 4 times before 3% DSS, 5 mice
[2] = Multiple Range Tests, * p < 0.05

With “HSP70: full length Mycobacterial HSP70 protein (SEQ ID NO: 55)” the “Histological grade, Average” value (DSS colitis; [1]) was 1.225, the “Weight change, Average” value (DSS colitis; [1]) was −0.44 and the “Histological grade, Difference (contrast PBS minus treatment)” value (DSS colitis; Multiple Range Tests) was 0.35. For the same substance, the “Colon length, Difference (contrast PBS minus treatment)” value (DSS colitis; [2]) was “*−1.02”, the “Weight change, Difference (contrast PBS minus treatment)” value (DSS colitis; [2]) was “*−4.62” and the “symptoms of colitis compared to PBS” value (DSS colitis; p=0.0057, 0.0387 and 0.0831 for colon length, weight loss and clinical state) was “significantly mitigates the symptoms of colitis”. For the same substance, the “IL-10 responses in the caudal lymphnodes” value (TNBS-induced colitis; orally given, CD3/CD28 restimulation of draining lymph node cells) was “elevated IL-10 responses”, the “effect on TNBS induced colitis” value (TNBS-induced colitis; prophylactically, HSP70 4x30 μg orally or intranasally, peptides 4x(67 μg C1 + 33 μg mC1a) intranasally) was “suppressive effect on TNBS induced colitis” and the “development of adjuvant arthritis” value (adjuvant arthritis) was “reduce the development of adjuvant arthritis”.
